Here are results for one sequence from patent publication US11674959B2, “Methods for identifying and preparing pharmaceutical agents for activating Tie1 and/or Tie2 receptors” (The Johns Hopkins University, priority 2017, dated 2023).

The test system of assay [1] is myosin light chain 2 (MLC2). As to the kind of experiment: Western blot of MEC lysates for pMLC2. Type of assay: cell-based, human. Conditions: AXT107 and 200 ng/ml Ang2. Here is the method: Phosphorylation of Tie2 is known to stimulate the Rap1-GTPase pathway, leading to a reduction in the phosphorylation of the downstream motor protein myosin light chain 2 (MLC2) associated with actin rearrangement.
(§1) For Ang1/2 signaling investigations, cell culture dishes (10 cm diameter) were coated with 5 μg/ml fibronectin (FN1; Sigma-Aldrich, St. Louis, Mo.) for two hours at 37° C. The FN1 solution was then removed by aspiration and 5×10^6 microvascular endothelial cells (MECs; Lonza, Walkersville, Md.) were plated in EGM-2MV media (Lonza) and cultured for forty-eight hours at 37° C. The cells were then serum starved for sixteen hours in serum-free EGM-2 base media (Lonza). AXT107 (0-100 μM, as indicated) was subsequently added to each culture and incubated for seventy-five minutes at 37° C. […] Specific proteins were identified by Western blot, using the following primary antibodies: Cell Signaling—phospho-Tie2 (Y992) (Cat #: 4221), Tie2 (Cat #: 7403), phospho-Stat3 (Y705) (Cat #: 4113), Stat3 (Cat #: 4904), phospho-Akt (S473) (Cat #: 4058), Akt (Cat #: 9272), phospho-p44/42 MAPK (T202/Y204) (Cat #: 4370), p44/42 MAPK (Cat #: 4695); BD Transduction Laboratories—β1 integrin (Cat #: 610467); Millipore—α5 integrin (Cat #: AB1928) and detected with HRP-conjugated goat anti-rabbit and sheep anti-mouse secondary antibodies (GE healthcare).

A further assay relates to VE-cadherin. As to the kind of experiment: Western blot of VE-Cadherin from MEC monolayers. The class given is cell-based, human. Conditions: three hours of AXT107 and Ang2 treatment. Here is the method:
The jaggedness of these junctions is related to the structure of actin within the cell.
as §1, with “[…] The cells were then transferred” for “AXT107 (0-100 μM, as indicated) was subsequently added”, “ice, washed twice with ice cold Dulbecco's phosphate-buffered saline (dPBS) containing Ca^2+” for “each culture”, “Mg^2+, and collected by scraping in 500 μl of 1× Blue Loading Buffer (Cell Signaling, Danvers, Mass.).” for “incubated for seventy-five minutes at 37° C.”

A further assay concerns Akt. Put plainly: Western blot of MEC lysates: Akt phosphorylation. Type of assay: cell-based, human. Conditions: Ang2 and AXT107 treatment. Here is the method: (§2) To investigate the effects of the integrin inhibitor AXT107 on Tie2 signaling, confluent monolayers of microvascular endothelial cells (MECs) on fibronectin-coated dishes were treated with various concentrations of AXT107 followed by exposure to the Tie2 ligands Ang1 or Ang2.
Human dermal microvascular endothelial cells (Lonza) were maintained at 37° C. and 5% CO2 in EBM-2MV medium (Lonza) and used between passages two through seven. Where applicable, cells were serum starved in EBM-2 medium (Lonza) with no supplements. For FITC-Dextran permeability assays phenol red-free media were used to avoid auto-fluorescence. […]
For Ang1/2 signaling investigations, cell culture dishes (10 cm diameter) were coated with 5 μg/ml fibronectin (FN1; Sigma-Aldrich, St. Louis, Mo.) for two hours at 37° C. […] Specific proteins were identified by Western blot, using the following primary antibodies: Cell Signaling—phospho-Tie2 (Y992) (Cat #: 4221), Tie2 (Cat #: 7403), phospho-Stat3 (Y705) (Cat #: 4113), Stat3 (Cat #: 4904), phospho-Akt (S473) (Cat #: 4058), Akt (Cat #: 9272), phospho-p44/42 MAPK (T202/Y204) (Cat #: 4370), p44/42 MAPK (Cat #: 4695); BD Transduction Laboratories—β1 integrin (Cat #: 610467); Millipore—α5 integrin (Cat #: AB1928) and detected with HRP-conjugated goat anti-rabbit and sheep anti-mouse secondary antibodies (GE healthcare).

The next assay has as its system Tie2. Put plainly: Western blot of MEC lysates, Ang1/2 signaling: Tie2 phosphorylation. The class given is cell-based, human. Here is the method:
as §2
Human dermal microvascular endothelial cells (Lonza) were maintained at 37° C. and 5% CO2 in EBM-2MV medium (Lonza) and used between passages two through seven. Where applicable, cells were serum starved in EBM-2 medium (Lonza) with no supplements. For FITC-Dextran permeability assays phenol red-free media were used to avoid auto-fluorescence. AXT107 were manufactured at New England Peptide by […], lyophilized, and dissolved in 100% DMSO.
For Ang1/2 signaling investigations, cell culture dishes (10 cm diameter) were coated with 5 μg/ml fibronectin (FN1; Sigma-Aldrich, St. Louis, Mo.) for two hours at 37° C. The FN1 solution was then removed by aspiration and 5×10^6 microvascular endothelial cells (MECs; Lonza, Walkersville, Md.) were plated in EGM-2MV media (Lonza) and cultured for forty-eight hours at 37° C. The cells were then serum starved for sixteen hours in serum-free EGM-2 base media (Lonza). AXT107 (0-100 μM, as indicated) was subsequently added to each culture and incubated for seventy-five minutes at 37° C. The cultures were then treated with 1 mM sodium vanadate (New England Biolabs, Ipswich, Mass.) for fifteen minutes to enhance the phospho-Tie2 signal followed by stimulation with 200 ng/ml angiopoietin (R&D Systems, Minneapolis, Minn.) for an additional fifteen minutes. The cells were then transferred to ice, washed twice with ice cold Dulbecco's phosphate-buffered saline (dPBS) containing Ca^2+ and Mg^2+, and collected by scraping in 500 μl of 1× Blue Loading Buffer (Cell Signaling, Danvers, Mass.). Lysate samples were then sonicated, boiled, and resolved by SDS-PAGE. Specific proteins were identified by Western blot, using the following primary antibodies: Cell Signaling—phospho-Tie2 (Y992) (Cat #: 4221), Tie2 (Cat #: 7403), phospho-Stat3 (Y705) (Cat #: 4113), Stat3 (Cat #: 4904), phospho-Akt (S473) (Cat #: 4058), Akt (Cat #: 9272), phospho-p44/42 MAPK (T202/Y204) (Cat #: 4370), p44/42 MAPK (Cat #: 4695); BD Transduction Laboratories—β1 integrin (Cat #: 610467); Millipore—α5 integrin (Cat #: AB1928) and detected with HRP-conjugated goat anti-rabbit and sheep anti-mouse secondary antibodies (GE healthcare).

The target in a further assay is integrin α5β1 (Homo sapiens, UniProt P05556+P08648). Conditions: Lee et al. 2014; Lima et al. 2017; cited from earlier work.
Chain of integrin α5β1 (P08648 42-1049): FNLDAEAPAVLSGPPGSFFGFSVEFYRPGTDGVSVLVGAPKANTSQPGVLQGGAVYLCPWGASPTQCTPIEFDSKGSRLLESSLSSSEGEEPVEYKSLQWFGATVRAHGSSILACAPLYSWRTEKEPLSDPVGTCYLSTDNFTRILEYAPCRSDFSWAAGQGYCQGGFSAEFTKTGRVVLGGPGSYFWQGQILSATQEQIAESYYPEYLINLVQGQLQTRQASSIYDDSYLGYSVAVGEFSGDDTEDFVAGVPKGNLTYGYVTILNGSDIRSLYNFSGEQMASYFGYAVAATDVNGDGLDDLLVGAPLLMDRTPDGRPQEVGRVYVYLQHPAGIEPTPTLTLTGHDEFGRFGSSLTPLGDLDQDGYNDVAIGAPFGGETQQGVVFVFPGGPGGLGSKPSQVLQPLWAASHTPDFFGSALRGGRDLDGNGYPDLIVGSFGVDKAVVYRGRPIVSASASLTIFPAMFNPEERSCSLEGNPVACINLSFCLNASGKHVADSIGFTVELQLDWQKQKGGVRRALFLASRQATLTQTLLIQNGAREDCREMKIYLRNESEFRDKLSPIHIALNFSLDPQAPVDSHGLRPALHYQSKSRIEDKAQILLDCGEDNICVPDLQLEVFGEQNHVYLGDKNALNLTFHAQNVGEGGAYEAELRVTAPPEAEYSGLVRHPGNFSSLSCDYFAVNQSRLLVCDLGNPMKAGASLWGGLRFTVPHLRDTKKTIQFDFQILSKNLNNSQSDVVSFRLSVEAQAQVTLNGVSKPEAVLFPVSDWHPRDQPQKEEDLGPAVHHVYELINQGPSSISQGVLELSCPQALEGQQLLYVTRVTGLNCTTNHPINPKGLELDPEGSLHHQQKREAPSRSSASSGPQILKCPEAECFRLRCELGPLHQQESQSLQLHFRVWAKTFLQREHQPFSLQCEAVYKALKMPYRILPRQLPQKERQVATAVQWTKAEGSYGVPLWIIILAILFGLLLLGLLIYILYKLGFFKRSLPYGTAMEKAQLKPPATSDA
Chain of integrin α5β1 (P05556 21-798): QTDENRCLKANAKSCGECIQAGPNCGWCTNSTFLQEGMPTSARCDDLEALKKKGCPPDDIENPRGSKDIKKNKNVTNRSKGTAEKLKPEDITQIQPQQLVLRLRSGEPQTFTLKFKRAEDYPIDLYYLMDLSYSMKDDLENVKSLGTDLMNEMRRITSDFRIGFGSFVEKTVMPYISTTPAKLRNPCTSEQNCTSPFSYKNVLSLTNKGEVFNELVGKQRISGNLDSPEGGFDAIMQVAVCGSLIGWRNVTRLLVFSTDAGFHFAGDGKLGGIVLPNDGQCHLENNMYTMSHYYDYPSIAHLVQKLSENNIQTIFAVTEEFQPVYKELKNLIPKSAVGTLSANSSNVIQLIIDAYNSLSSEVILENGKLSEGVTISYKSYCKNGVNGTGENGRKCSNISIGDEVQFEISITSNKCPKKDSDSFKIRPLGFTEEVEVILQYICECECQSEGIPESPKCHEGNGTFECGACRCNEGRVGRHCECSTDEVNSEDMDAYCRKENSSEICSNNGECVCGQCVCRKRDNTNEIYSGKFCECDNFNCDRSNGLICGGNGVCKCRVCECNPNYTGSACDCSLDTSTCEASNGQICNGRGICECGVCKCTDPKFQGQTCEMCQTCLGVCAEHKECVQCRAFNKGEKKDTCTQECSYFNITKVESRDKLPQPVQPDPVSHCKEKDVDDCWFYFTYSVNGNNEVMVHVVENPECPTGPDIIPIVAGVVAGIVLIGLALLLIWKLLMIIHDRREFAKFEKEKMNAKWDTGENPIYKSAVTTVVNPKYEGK

In the case of LRRFSTAPFAFIDINDVINF [AXT107], the “Phosphorylation of MLC2” value in assay [1] was “reduced in a dose-dependent manner”. The “Total level of VE-cadherin” value in the assay on VE-cadherin was “remained unchanged”. Moreover, the Akt phosphorylation result with Akt is “also increased”. Also, the Tie2 phosphorylation result with Tie2 (AXT107 (0-100 μM) in combination with 200 ng/ml Ang2) is reported as “significant, dose-dependent increase in Tie2 phosphorylation”. In the assay with Tie2 (MECs on fibronectin, AXT107 then Ang1, data not shown), the “Influence on Ang1 activity (Tie2 phosphorylation)” value was “did not significantly influence Ang1 activity”. Also, the “Phosphorylation by peptide alone” value with Tie2 (absence of either ligand) is on record as “phosphorylation was not induced by peptide alone”. Besides, in the assay on Tie2 (data not shown), the “Total protein levels of Tie2 and the downstream targets” value is “remained unchanged”. For the same sequence, the “Binding to integrin α5β1” value with integrin α5β1 is “binds tightly”.
